Measured values reported in US9642854B2, “Flavanoid compounds and process for preparation thereof” (Council of Scientific & Industrial Research, priority 2009, dated 2017).
≈ marks a conversion by molar mass, not a printed value. One block for each molecule: values may come before it.

Tests used:
Format in all cases: cell-based, Helicobacter pylori
H. pylori [1] = experiment: MIC and MBC by microbroth dilution assay; conditions: Helicobacter pylori
Experimental: The compounds, serially diluted ([…]) in Muller Hinton broth containing 5% FCS, were incubated in 96-well microtitre plate containing fresh cultures of HP001 (˜5.5×10^6 CFU/mL) or ATCC® 43504 (2.65×10^6 CFU/ml) in a final volume of […]. After 72-h of incubation under microaerophilic condition at 37° C., […] of cultures wherein no growth had been detected were streaked on fresh brain heart infusion agar plates for MBC determination.
In microbroth dilution assay employing one clinical and one standard strain, both the bacteriostatic and the bactericidal values were determined for all four compounds as well as for clarithromycin (Table 4). Two-fold serial dilutions were prepared in 96-well microtitre plate containing a total volume of 0.1 mL Mueller Hinton broth supplemented with 5% FCS. A 3-day old liquid culture was diluted 10 times in Mueller Hinton broth and 0.1 mL of these cultures was inoculated into each well to give a final concentration of ˜10^6 CFU/mL. The plates were incubated for 3 days in a microaerophilic atmosphere at 37° C. Following incubation, the plates were examined visually, and the lowest concentration showing complete inhibition of growth was recorded as the MIC of the respective compound (Hachem et al., 1996). Aliquots (0.1 mL) of 72-h culture in which no growth had been detected were taken from the wells of the above microtitre plates and used to streak on fresh BHI agar plates.

H. pylori [2] = experiment: Anti H. pylori screening by disc diffusion susceptibility assay; conditions: for Inhibition Zone Diameter (mm): spacer molecules
Experimental: The discs were impregnated with […] of each of the compounds, dissolved either in ethanol or DMSO, and the zone of inhibition was measured after 72 h of growth under microaerophilic conditions at 37° C. Inhibition zone diameter ranging 10-20 mm was given a score of ^+, 20-30 mm as ^++ and that of >30 mm as ^+++, as obtained employing dose range of […]/disc. The detailed structural information of the molecules is provided under ‘Description of the Compounds’.
Methods and protocols for the determination of inhibition zone diameter are as stated under Experiment 1, and that of MIC values by microbroth dilution assay as in Experiment 3. ‘Nil’ means zone of inhibition below 10 mm.
The anti H. pylori activity of all 16 flavonoid molecules, 2 naturally isolated and 14 synthetic derivatives, was screened by disc diffusion sensitivity assay employing 2 clinical strains HP001 and HP002, and three standard strains ATCC® 700392, 43504 and 49503. A 0.5 mL inoculum (10^8 CFU/mL) for each bacterial strain tested was flooded on freshly prepared Brain Heart Infusion (BHI) agar plates supplemented with 7% FCS, 0.5% IsoVitalex and 0.0025% DENT® and the discs (5 mm diameter) containing different compounds or antibiotics (dissolved either in ethanol or DMSO) were placed on the agar surface. After incubation for 3 days in a microaerophilic atmosphere at 37° C., the diameter of the zone of inhibition was measured (Glupczynsky, 1996; McNulty et al., 2002).

H. pylori [3] = experiment: Time kill kinetic analyses in biphasic culture; conditions: HP001
H. pylori [4] = experiment: Anti H. pylori spectrum (MIC) by agar dilution method; conditions: Helicobacter pylori
Experimental: MIC was determined using agar dilution assay following the CLSI® guidelines. Six clinical isolates and four standard strains were used for this study. Five microlitre of freshly grown 3-day old culture (˜1×10^8 CFU/mL) was streaked in plates containing 2-fold serial dilution of the compounds ranging […], and incubated under microaerophilic condition at 37° C. After 72 h, the plates were inspected visually for absence of growth to assess the MIC values. The experiment was performed in duplicates. MIC50 is defined as the dose (μg/ml) required for killing 50% of the strains.
Plates contained two-fold serial dilutions of the compounds ranging from […]. Five microlitres of 3-day old freshly grown H. pylori culture (^˜10^8 CFU/mL) was inoculated onto drug-containing BHI agar plates supplemented with 7% FCS, 0.5% IsoVitalex and 0.0025% DENT®, which were then incubated for 3 days under microaerophilic condition at 37° C.

[5] = ATCC43504, microbroth dilution, ATCC 43504

MIC (H. pylori [1]; [5]): > 400 µg/mL
MIC (H. pylori [1]; microbroth dilution, HP001): > 400 µg/mL
SMILES: CCCOc1ccc2c(=O)cc(-c3ccccc3)oc2c1 [reference compound]
Inhibition Zone Diameter (mm) (H. pylori [2]; ATCC 43504): Nil (‘Nil’ means zone of inhibition below 10 mm.)
Inhibition Zone Diameter (mm) (H. pylori [2]; HP001): Nil (‘Nil’ means zone of inhibition below 10 mm.)

MIC (H. pylori [1]; [5]): 0.04 µg/mL (≈ 0.0535 µM)
MIC (H. pylori [1]; microbroth dilution, HP001): 0.01 µg/mL (≈ 0.0134 µM)
MIC (H. pylori [4]; 72 h, panel of 6 clinical isolates and 4 standard strains, read-out: MIC Range): 0.016 to 0.1 µg/mL (≈ 0.0214 to 0.134 µM)
MIC50 (H. pylori [4]; MIC against 50% of the strains of the panel, read-out: MIC50): 0.032 µg/mL (≈ 0.0428 µM)
MIC (H. pylori [4]; clinical strain HP001, read-out: MIC): 0.016 µg/mL (≈ 0.0214 µM)
MIC (H. pylori [4]; clinical strain HP002, read-out: MIC): 0.032 µg/mL (≈ 0.0428 µM)
MIC (H. pylori [4]; clinical strain HP003, read-out: MIC): < 0.02 µg/mL
MIC (H. pylori [4]; clinical strain HP004, read-out: MIC): 0.04 µg/mL (≈ 0.0535 µM)
MIC (H. pylori [4]; clinical strain HP005, read-out: MIC): 0.08 µg/mL (≈ 0.107 µM)
MIC (H. pylori [4]; clinical strain HP006, read-out: MIC): 0.08 µg/mL (≈ 0.107 µM)
MIC (H. pylori [4]; standard strain 43504, read-out: MIC): 0.032 µg/mL (≈ 0.0428 µM)
MIC (H. pylori [4]; standard strain 43629, read-out: MIC): 0.1 µg/mL (≈ 0.134 µM)
MIC (H. pylori [4]; standard strain 49503, read-out: MIC): 0.016 µg/mL (≈ 0.0214 µM)
MIC (H. pylori [4]; standard strain 700392, read-out: MIC): 0.064 µg/mL (≈ 0.0856 µM)
SMILES: CC[C@H]1OC(=O)[C@H](C)[C@@H](O[C@H]2C[C@@](C)(OC)[C@@H](O)[C@H](C)O2)[C@H](C)[C@@H](O[C@@H]2O[C@H](C)C[C@H](N(C)C)[C@H]2O)[C@](C)(OC)C[C@@H](C)C(=O)[C@H](C)[C@@H](O)[C@]1(C)O [Clarithromycin, reference compound]
MBC (H. pylori [1]; [5]): 0.08 µg/mL (≈ 0.107 µM)
MBC (H. pylori [1]; microbroth dilution, HP001): 0.04 µg/mL (≈ 0.0535 µM)
decrease in cell count (H. pylori [3]; at around 9 h): 1 log
time at which killing/inhibition became evident (H. pylori [3]; biphasic culture): around 9 h
inhibition zone (H. pylori [2]; strain 43504, 0.04 mg/disc): 20 mm
inhibition zone (H. pylori [2]; strain 49503, 0.005 mg/disc): 15 mm
inhibition zone (H. pylori [2]; strain 700392, 0.4 mg/disc): 28 mm
inhibition zone (H. pylori [2]; strains HP001 and HP002, 0.01 mg/disc): 18 mm

MIC (H. pylori [1]; [5]): > 400 µg/mL
MIC (H. pylori [1]; microbroth dilution, HP001): > 400 µg/mL
SMILES: CCCN1CCOCC1 [reference compound]
Inhibition Zone Diameter (mm) (H. pylori [2]; ATCC 43504): Nil (‘Nil’ means zone of inhibition below 10 mm.)
Inhibition Zone Diameter (mm) (H. pylori [2]; HP001): Nil (‘Nil’ means zone of inhibition below 10 mm.)

MIC (H. pylori [1]; [5]): > 400 µg/mL
MIC (H. pylori [1]; microbroth dilution, HP001): > 400 µg/mL
SMILES: CCCN1CCN(C)CC1 [reference compound]
Inhibition Zone Diameter (mm) (H. pylori [2]; ATCC 43504): Nil (‘Nil’ means zone of inhibition below 10 mm.)
Inhibition Zone Diameter (mm) (H. pylori [2]; HP001): Nil (‘Nil’ means zone of inhibition below 10 mm.)
